# Test results reported in patent US20140018384A1, “QUINOLINONE DERIVATIVES FOR USE IN THE TREATMENT OF AN AUTOIMMUNE DISEASE AND/OR AN INFLAMMATORY DISEASE” (PRONOXIS AB, priority 2011, published 2014).
# Like-named read-outs stand apart in the source and are kept apart here.
# Key:
# PLB-985 cells = experiment: ROS production (isoluminol/HRP luminescence) in PLB-985 cells, Biological Example 1; assay type: cell-based; conditions: 25 μM compound vs. DMSO
# In short: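 Cells in HBSS received compound plus isoluminol and HRP; luminescence followed 10–30 min, AUC divided by control to give fold change in NADPH oxidase activity. HL-60: 50 μM compound vs blank; PLB-985: 25 μM compound vs blank or vs DMSO.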
# Rat granulocytes = experiment: ROS production in thioglycollate-recruited rat granulocytes, isoluminol chemiluminescence assay; assay type: cell-based; conditions: 25 μM compound, compared to DMSO control cells; FIGS. 2A and B
# Procedure: (§1) FIG. 2: ROS production and effect on T cell arthritogeniciy of ROS inducing substances. A-B). Thioglycolate recruited rat granulocytes (in accordance with the procedure in Biological Example 3) were treated with 25 μM substance and measurement of ROS production was initiated immediately using an isoluminol based chemiluminescence assay (FIGS. 2A and 2B). […] C-D) Arthritogenic rat splenocytes were treated with 12.5 μM substance during 44 hours ex vivo incubation in presence of ConA (FIGS. 2C and 2D). Following incubation, cells were washed and injected i.p. into naive recipient rats (n=8-11). Disease severity in recipient rats was followed by investigation of macroscopic swelling and redness of the rat joints. Treatment with substance during ex vivo stimulation prevented transfer of arthritogenic T cells.
# Rat granulocytes were recruited to the peritoneum by an i.p. injection of 2.4% thioglycollate medium (autoclaved). The peritoneal cavity was washed after 24 hours with ice cold HBSS. Collected cells were, after lysis of red blood cells, washed and resupended in HBSS. In a total volume of 100 μl, compound (25 μM), isoluminol (0.175 mg/ml) and horseradish peroxidase (fraction II) (1.75 U/ml) was added to the cells (0.1*10̂6/well) and resulting ROS production detected as a luminescence signal (fluorescent unit, FU) over time. […] All samples were analysed at least in duplicates.
# arthritogenic T cells = experiment: Adoptive transfer of ex vivo treated arthritogenic T cells (splenocytes) to naive recipient DA rats; assay type: in vivo, rat; conditions: for T cells capacity to transfer arthritis to naive recipients: 12.5 μM substance, 44 hours ex vivo with ConA, cells injected i.p. into DA rats, FIGS. 2C and D
# Procedure: Arthritogenic cells were treated with H2O2 (176-1.76 μM) for 20 min and A) granulocytes and B) T cells (see FIGS. 1A and 1B) were investigated for intracellular ROS using a DHR-123 based flow cytometric assay. […] Arthritogenic cells were cultured in presence of Con A and w/wo H2O2 (176-1.76 μM) for 44 hours and then transferred to naïve recipient rats (n=7-9).
# as §1
# In order to investigate the effect of ROS on T cell arthritogenicity, spleens were collected from arthritis susceptible DA rats injected with the arthritis inducing oil pristane (0.5 ml per rat s.c.) day −13. Single cell suspensions were prepared from the spleens and red blood cells were lysed. After wash, cells were resuspended in cell culture medium containing concanavalin A (ConA) to a final concentration of 4.5×10̂6 cells/ml. […] The cells were incubated for 44 hours at 37° C. After incubation the cells were washed and resuspended in PBS to a final concentration of 60*10̂6 cells/ml. Cells were injected i.p. (1 ml/rat) into naïve recipient DA rats and disease was followed by macroscopic evaluation of disease.
# In order to investigate the effect of ROS inducing substances on T cell arthritogenicity, spleens were collected from arthritis susceptible DA rats injected with the arthritis inducing oil pristane (0.5 ml per rat s.c.) day −13. Single cell suspensions were prepared from the spleens and red blood cells were lysed.
# After wash, cells were resuspended in cell culture medium containing concanavalin A (ConA) to a final concentration of 4.5×10̂6 cells/ml. Substance A or B was added to the cells to a final concentration of 12.5 μM. The cells were incubated for 44 hours at 37° C. Control cells were incubated in presence of vehicle control (DMSO). After incubation the cells were washed and resuspended in PBS to a final concentration of C) 30*10̂6 and D) 60*10̂6 cells/ml. Cells were injected i.p. (1 ml/rat) into naïve recipient DA rats and disease was followed by macroscopic evaluation of disease (n=8-11).
# HL-60 cells = experiment: ROS production (isoluminol/HRP luminescence) in HL-60 cells, Biological Example 1; assay type: cell-based; conditions: Homo sapiens, 50 μM compound vs. blank, read-out: Activity A (fold increase of NADPH activity compared to control)
# Procedure: To cells (HL-60 or PLB-985) in HBSS medium was added compound (25 or 50 μM), isoluminol and Horse Radish Peroxidase, fraction II. Luminescence was measured for 10-30 minutes and the area under the […] curve was divided by that from a control experiment to give the activity expressed as fold change.
# Each assay indicated below was performed at a different site, at a different time, by different personnel and/or using different cell lines, concentrations and controls. The cell line, concentration of example compound and control used in respect of each assay were as indicated below. The values obtained from these different setups (each using an otherwise identical assay) are given as Activity A, B, C, D or E in Table 5 below. The values are expressed as fold increase of NADPH activity in the presence of the relevant of compound (as indicated below) compared to the relevant control (as indicated below).
# Activity A: HL-60 cells; 50 μM compound vs. blank Activity B: PLB-985 cells; 25 μM compound vs. blank Activity C, D and E: PLB-985 cells; 25 μM compound vs. DMSO
# granulocytes and T cells = conditions: H2O2 176-1.76 μM for 20 min
# Procedure: In order to measure the effect of exogenous ROS on intracellular ROS content, single cell suspensions were prepared from rat spleens. After lysis of red blood cells (0.84% ammonium chloride) the cells were stained with antibody His-48-bio (anti-granulocyte) or R73-bio (anti-T cell receptor) followed by staining with streptavidine-APC. Cells were then resuspended in DMEM containing DHR-123 and incubated for 10 minutes at 37° C. […] After 20 minutes incubation, cells were washed, resuspended in PBS and acquired in a FACScalibur. […] Samples were analysed in triplicates.
# [1] = setup C, read-out: Activity C (fold increase of NADPH activity compared to control)
# [2] = setup D, read-out: Activity D (fold increase of NADPH activity compared to control)
smiles,measurement,setting,value
"O=C(Cn1cc(C(=O)c2ccc3ccccc3c2)c(=O)c2cc3c(cc21)OCO3)Nc1ccc(Cl)cc1 [Example 1, N-(4-Chlorophenyl)-2-[6,7-methylenedioxy-3-(2-naphthoyl)-4-oxo-1-quinolinyl]-acetamide]",fold induction at 25 µM,PLB-985 cells; [1],45.3
same,fold induction at 25 µM,PLB-985 cells; [2],27.4
same,fold induction at 25 µM,"PLB-985 cells; setup E, read-out: Activity E (fold increase of NADPH activity compared to control)",8.5
same,cellular ROS production (luminescence signal over time),Rat granulocytes,clear induction of cellular ROS production
same,T cells capacity to transfer arthritis to naive recipients,arthritogenic T cells,significantly alters the T cells capacity to transfer arthritis to naïve recipients
"COc1ccc(NC(=O)Cn2cc(C(=O)c3ccccc3)c(=O)c3cc4c(cc32)OCO4)c(OC)c1 [Example 84, 2-(3-Benzoyl-6,7-methylenedioxy-4-oxo-1-quinolinyl)-N-(2,4-dimethoxyphenyl)acetamide]",fold induction at 25 µM,PLB-985 cells; [1],8.4
same,cellular ROS production (luminescence signal over time),Rat granulocytes,clear induction of cellular ROS production
same,T cells capacity to transfer arthritis to naive recipients,arthritogenic T cells,significantly alters the T cells capacity to transfer arthritis to naïve recipients
"CCOc1ccc2c(c1)c(=O)c(C(=O)c1ccc(C)cc1)cn2CC(=O)Nc1ccccc1C [Example 91, 2-(6-Ethoxy-4-oxo-3-p-toluoyl-1-quinolinyl)-N-o-tolylacetamide]",fold induction at 50 µM,HL-60 cells,5.3
"O=C(Cn1cc(C(=O)c2ccc(Cl)cc2)c(=O)c2cc3c(cc21)OCO3)Nc1ccc(F)cc1 [Example 92, 2-[3-(4-Chlorobenzoyl)-6,7-methylenedioxy-4-oxo-1-quinolinyl]-N-(4-fluorophenyl)acetamide]",fold induction at 50 µM,HL-60 cells,8.2
"COc1ccc(NC(=O)Cn2cc(C(=O)c3ccc(F)cc3)c(=O)c3cc4c(cc32)OCO4)c(OC)c1 [Example 93, N-(2,4-Dimethoxyphenyl)-2-[3-(4-fluorobenzoyl)-6,7-methylenedioxy-4-oxo-1-quinolinyl]acetamide]",fold induction at 50 µM,HL-60 cells,2.9
"CCOc1ccc(C(=O)c2cn(CC(=O)Nc3ccc(OC)cc3)c3cc4c(cc3c2=O)OCO4)cc1 [Example 94, N-p-Anisyl-2-[3-(4-ethoxybenzoyl)-6,7-methylenedioxy-4-oxo-1-quinolinyl]acetamide]",fold induction at 50 µM,HL-60 cells,8.4
"O=C(Cn1cc(S(=O)(=O)c2ccc(F)cc2)c(=O)c2cc3c(cc21)OCO3)Nc1ccccc1 [Example 96, 2-[3-(4-Fluorobenzenesulfonyl)-6,7-methylenedioxy-4-oxo-1-quinolinyl]-N-phenylacetamide]",fold induction at 50 µM,HL-60 cells,2.3
"Cc1ccc(C(=O)c2cn(CC(=O)Nc3ccc(F)c(F)c3)c3cc4c(cc3c2=O)OCO4)cc1 [Example 97, N-(3,4-Difluorophenyl)-2-(6,7-methylenedioxy-4-oxo-3-p-toluoyl-1-quinolinyl)acetamide]",fold induction at 50 µM,HL-60 cells,6
"CCc1ccc(C(=O)c2cn(CC(=O)Nc3ccc(OC)cc3)c3cc4c(cc3c2=O)OCO4)cc1 [Example 98, N-p-Anisyl-2-[3-(4-ethylbenzoyl)-6,7-methylenedioxy-4-oxo-1-quinolinyl]acetamide]",fold induction at 50 µM,HL-60 cells,9
"CCOc1ccc(NC(=O)Cn2cc(C(=O)c3ccccc3)c(=O)c3cc4c(cc32)OCO4)cc1 [Example 99, 2-(3-Benzoyl-6,7-methylenedioxy-4-oxo-1-quinolinyl)-N-(4-ethoxyphenyl)acetamide]",fold induction at 50 µM,HL-60 cells,4.3
"CCc1ccc(C(=O)c2cn(CC(=O)Nc3ccc(F)cc3)c3cc4c(cc3c2=O)OCO4)cc1 [Example 100, 2-[3-(4-Ethylbenzoyl)-6,7-methylenedioxy-4-oxo-1-quinolinyl]-N-(4-fluorophenyl)acetamide]",fold induction at 50 µM,HL-60 cells,2.9
"Cc1ccc(C(=O)c2cn(CC(=O)Nc3ccccc3C)c3cc4c(cc3c2=O)OCO4)cc1 [Example 101, 2-(6,7-Methylenedioxy-4-oxo-3-p-toluoyl-1-quinolinyl)-N-o-tolylacetamide]",fold induction at 50 µM,HL-60 cells,2.1
"COc1ccc(NC(=O)Cn2cc(C(=O)c3ccc(F)cc3)c(=O)c3cc(Cl)ccc32)cc1 [Example 109, N-p-Anisyl-2-[6-chloro-3-(4-fluorobenzoyl)-4-oxo-1-quinolinyl]acetamide]",fold induction at 25 µM,PLB-985 cells; [2],2.5
"OO [Example H2O2, Hydrogen peroxide, reference compound]",mean arthritis severity in recipient rats,arthritogenic T cells; cells cultured 44 hours with Con A at lower concentrations of H2O2 (below 88 μM),the effect is lost
same,mean arthritis severity in recipient rats,arthritogenic T cells; cells cultured 44 hours with Con A in presence of 176 μM and 88 μM H2O2,significant reduction
same,intracellular ROS,granulocytes and T cells,Intracellular ROS reflected amount of H2O2 added
